Peptide text beside a SMILES is read from it.
Assays:
Test in all cases: HDAC Enzyme Activity Assay
Conditions in all cases: pH 8; 37 °C
Histone deacetylase 1 = Histone deacetylase 1 (Homo sapiens, UniProt Q13547)
Histone deacetylase 4 = Histone deacetylase 4 (Homo sapiens, UniProt P56524)
Histone deacetylase 6 = molecular target: T1, Histone deacetylase 6 (Mus musculus, UniProt Q9Z2V5)
T1 sequence (Q9Z2V5 whole entry): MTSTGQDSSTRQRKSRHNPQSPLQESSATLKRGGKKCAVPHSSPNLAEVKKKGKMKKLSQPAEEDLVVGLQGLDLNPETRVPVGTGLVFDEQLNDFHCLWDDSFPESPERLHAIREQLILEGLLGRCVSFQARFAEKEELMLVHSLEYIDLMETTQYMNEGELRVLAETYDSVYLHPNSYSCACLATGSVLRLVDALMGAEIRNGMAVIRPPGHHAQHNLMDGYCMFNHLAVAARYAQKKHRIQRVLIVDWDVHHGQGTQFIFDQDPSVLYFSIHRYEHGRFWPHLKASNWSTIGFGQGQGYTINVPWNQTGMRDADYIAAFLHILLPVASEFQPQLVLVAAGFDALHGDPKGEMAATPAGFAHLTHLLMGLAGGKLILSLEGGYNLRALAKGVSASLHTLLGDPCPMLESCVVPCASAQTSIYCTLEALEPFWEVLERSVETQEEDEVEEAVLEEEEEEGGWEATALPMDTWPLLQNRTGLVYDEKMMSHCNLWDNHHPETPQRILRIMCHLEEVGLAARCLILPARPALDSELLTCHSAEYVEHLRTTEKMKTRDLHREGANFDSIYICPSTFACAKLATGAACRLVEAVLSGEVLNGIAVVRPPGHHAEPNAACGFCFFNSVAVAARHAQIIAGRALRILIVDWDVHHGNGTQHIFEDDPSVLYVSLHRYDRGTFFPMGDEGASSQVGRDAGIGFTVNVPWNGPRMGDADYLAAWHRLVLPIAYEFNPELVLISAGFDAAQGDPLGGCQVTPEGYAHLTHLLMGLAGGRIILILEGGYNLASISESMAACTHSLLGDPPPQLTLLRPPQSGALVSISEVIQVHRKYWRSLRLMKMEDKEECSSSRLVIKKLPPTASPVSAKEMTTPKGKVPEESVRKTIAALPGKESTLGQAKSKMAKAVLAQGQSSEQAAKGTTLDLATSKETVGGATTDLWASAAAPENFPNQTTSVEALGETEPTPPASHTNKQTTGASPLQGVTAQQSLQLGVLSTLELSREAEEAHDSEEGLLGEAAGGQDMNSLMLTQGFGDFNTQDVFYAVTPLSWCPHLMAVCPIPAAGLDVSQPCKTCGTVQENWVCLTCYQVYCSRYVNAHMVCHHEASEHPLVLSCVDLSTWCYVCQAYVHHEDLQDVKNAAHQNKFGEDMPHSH

Histone deacetylase 4, sequence (P56524 whole entry): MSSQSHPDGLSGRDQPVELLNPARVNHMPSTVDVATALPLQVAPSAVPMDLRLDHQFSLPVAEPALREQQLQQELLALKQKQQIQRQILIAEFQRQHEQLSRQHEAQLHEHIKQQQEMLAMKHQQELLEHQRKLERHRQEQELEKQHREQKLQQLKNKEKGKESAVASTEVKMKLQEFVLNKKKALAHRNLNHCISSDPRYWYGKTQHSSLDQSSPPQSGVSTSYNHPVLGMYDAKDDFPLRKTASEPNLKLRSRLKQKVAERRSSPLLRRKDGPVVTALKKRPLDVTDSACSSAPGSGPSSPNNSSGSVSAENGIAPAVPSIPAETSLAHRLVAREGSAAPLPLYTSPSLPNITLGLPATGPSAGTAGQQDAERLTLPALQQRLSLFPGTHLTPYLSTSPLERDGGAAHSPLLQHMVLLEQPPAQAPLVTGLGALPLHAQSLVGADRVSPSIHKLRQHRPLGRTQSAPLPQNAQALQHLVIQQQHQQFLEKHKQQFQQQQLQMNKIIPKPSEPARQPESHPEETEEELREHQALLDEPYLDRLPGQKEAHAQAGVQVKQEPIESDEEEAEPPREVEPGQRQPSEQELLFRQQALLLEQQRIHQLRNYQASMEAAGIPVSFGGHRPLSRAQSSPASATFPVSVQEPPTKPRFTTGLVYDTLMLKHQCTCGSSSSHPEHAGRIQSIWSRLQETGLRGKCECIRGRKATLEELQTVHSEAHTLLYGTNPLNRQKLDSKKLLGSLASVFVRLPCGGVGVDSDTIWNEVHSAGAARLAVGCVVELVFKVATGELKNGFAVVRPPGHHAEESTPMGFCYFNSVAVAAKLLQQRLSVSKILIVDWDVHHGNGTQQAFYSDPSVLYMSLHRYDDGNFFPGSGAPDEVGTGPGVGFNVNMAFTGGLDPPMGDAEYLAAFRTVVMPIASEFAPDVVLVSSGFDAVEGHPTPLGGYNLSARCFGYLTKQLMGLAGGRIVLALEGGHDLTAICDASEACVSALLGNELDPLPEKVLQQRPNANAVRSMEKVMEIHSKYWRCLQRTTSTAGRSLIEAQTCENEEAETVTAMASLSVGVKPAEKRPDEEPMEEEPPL
Histone deacetylase 1, sequence (Q13547 whole entry): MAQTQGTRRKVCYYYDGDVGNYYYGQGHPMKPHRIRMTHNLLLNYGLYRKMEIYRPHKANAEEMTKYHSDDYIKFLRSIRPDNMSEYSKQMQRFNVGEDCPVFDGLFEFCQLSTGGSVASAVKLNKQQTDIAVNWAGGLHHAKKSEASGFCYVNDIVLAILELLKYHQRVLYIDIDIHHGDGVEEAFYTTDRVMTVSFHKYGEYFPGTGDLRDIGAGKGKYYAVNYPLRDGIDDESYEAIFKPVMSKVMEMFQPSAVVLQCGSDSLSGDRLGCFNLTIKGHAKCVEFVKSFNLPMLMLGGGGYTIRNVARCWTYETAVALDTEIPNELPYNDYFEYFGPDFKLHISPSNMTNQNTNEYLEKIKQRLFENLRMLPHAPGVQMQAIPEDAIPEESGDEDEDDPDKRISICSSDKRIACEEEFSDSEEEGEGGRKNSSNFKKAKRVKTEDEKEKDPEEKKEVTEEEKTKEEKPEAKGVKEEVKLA

Structure (SMILES)	IC50 (Histone deacetylase 1) [µM]	IC50 (Histone deacetylase 4) [µM]	IC50 (Histone deacetylase 6) [µM]
CC1(C)NC(=O)[C@H](CCCCCC=O)NC(=O)[C@H]2CCCN2C(=O)[C@H](Cc2ccccc2)NC1=O [6-[(3S,9S,14aR)-9-benzyl-6,6-dimethyl-1,4,7,10-tetraoxo-tetradecahydropyrrolo[1,2-a][,,,]cyclododecan-3-yl]hexanal]	4.33	1.29	14.1
CC1(C)NC(=O)[C@H](CCCCCC(O)CO)NC(=O)[C@H]2CCCN2C(=O)[C@H](Cc2ccccc2)NC1=O (stereo partly drawn) [(3S,9S,14aR)-9-benzyl-3-(6,7-dihydroxyheptyl)-6,6-dimethyl-tetradecahydropyrrolo[1,2-a][,,,]cyclododecane-1,4,7,10-tetrone]	> 100	> 100	> 100
CC1(C)NC(=O)[C@H](CCCCCC(=O)CBr)NC(=O)[C@H]2CCCN2C(=O)[C@H](Cc2ccccc2)NC1=O [(3S,9S,14aR)-9-benzyl-3-(7-bromo-6-oxoheptyl)-6,6-dimethyl-tetradecahydropyrrolo[1,2-a][,,,]cyclododecane-1,4,7,10-tetrone]		0.0595	
CC1(C)NC(=O)[C@H](CCCCCC(=O)CO)NC(=O)[C@H]2CCCN2C(=O)[C@H](Cc2ccccc2)NC1=O [(3S,9S,14aR)-9-benzyl-3-(7-hydroxy-6-oxoheptyl)-6,6-dimethyl-tetradecahydropyrrolo[1,2-a][,,,]cyclododecane-1,4,7,10-tetrone]	0.223	0.0604	0.887
C=CCCCCC[C@@H]1NC(=O)[C@H]2CCCN2C(=O)[C@H](Cc2ccccc2)NC(=O)C(C)(C)NC1=O [(3S,9S,14aR)-9-benzyl-3-(hept-6-en-1-yl)-6,6-dimethyl-tetradecahydropyrrolo[1,2-a][,,,]cyclododecane-1,4,7,10-tetrone] (HELM PEPTIDE1{[Aib].F.[dP].[C=CCCCCC[C@H](N[*:1])C(=O)[*:2]]}$PEPTIDE1,PEPTIDE1,1:R1-4:R2$$$V2.0)	> 100	> 100	> 100
CC(=O)CCCCC[C@@H]1NC(=O)[C@H]2CCCN2C(=O)[C@H](Cc2ccccc2)NC(=O)C(C)(C)NC1=O [(3S,9S,14aR)-9-benzyl-6,6-dimethyl-3-(6-oxoheptyl)-tetradecahydropyrrolo[1,2-a][,,,]cyclododecane-1,4,7,10-tetrone]	1.08	0.29	3.7
CC1(C)NC(=O)[C@H](CCCCCC2CO2)NC(=O)[C@H]2CCCN2C(=O)[C@H](Cc2ccccc2)NC1=O (stereo partly drawn) [(3S,9S,14aR)-9-benzyl-6,6-dimethyl-3-[5-(oxiran-2-yl)pentyl]-tetradecahydropyrrolo[1,2-a][,,,]cyclododecane-1,4,7,10-tetrone]	4.69	4.05	> 100
